Experimental data as given in patent publication US11484591B2, “Chemoprevention using controlled-release formulations of anti-interleukin 6 agents, synthetic vitamin A analogues or metabolites, and estradiol metabolites” (OHIO STATE INNOVATION FOUNDATION, priority 2016, dated 2022).
“Also recorded” adds a separate entry of the source.

Experiments:
[1] = system: EGFR, ERK1/2 and STAT3 phosphorylation; experiment: Effect of receptor targeted inhibitors on OSCC signaling (immunoblot); assay type: cell-based, human; conditions: 100 nM
Experimental: The accompanying histogram depicts levels of phosphorylated […], ERK1/2 and STAT3 relative to GAPDH.
Dosing levels were determined by concurrent proliferation and viability studies in conjunction with literature values. The cells in every treatment group were then stimulated for 20 minutes with: vehicle (1 μl ddH2O), 50 ng/ml EGF, 50 ng/ml VEGF, or 50 ng/ml EGF+50 ng/ml VEGF, followed by standard immunoblotting and data normalization relative to GAPDH. […] Immunoblot images were captured (Li-Cor Odyssey imager) and analyzed (Li-Cor Image Studio, Version 4.0) to depict effects on treatment on phosphorylation relative to respective levels of GAPDH.

[2] = 4-HPR release from PLGA implants, tumor and sera levels (UPLC/UV); assay type: in vivo, nude mice; conditions: UPLC/UV vs calibration standard
Text: Determination of 4-HPR tumor levels entailed recording tumor wet mass, addition of internal standard (acitretin) and RIPA lysis buffer, followed by homogenization, addition of acetonitrile and centrifugation. Acetretin percent recovery was compared to a RIPA buffer/acetonitrile extraction control solution spiked with equivalent amount of acetretin and 4-HPR. Sera preparation entailed addition of acetretin and acetonitrile, sonication, followed by centrifugation.
(§1) SCC2095sc cells [10^6 cells suspended in 100 μl Matrigel (Corning Life Sciences, Corning, N.Y.)] were subcutaneously injected in the flanks of 6 week old male nude mice (n=6 per treatment group). Tumor measurements were recorded daily with calipers (greatest length and greatest width) and final tumor volumes calculated via tumor volume V=(length×width)×½. Treatment groups consisted of: 1) control (PBS injections)+blank (no drug) PLGA implants, 2) 2-ME (1 μg/100 μl PBS, b.i.d.)+blank PLGA implant, 3) 4-HPR releasing PLGA implant+PBS injections, 4) TOC q.d. (0.3 μg/100 μl PBS)+PLGA blank implant, 5) 2-ME (1 μg/100 μl PBS, b.i.d.)+4-HPR releasing PLGA implant, 6) 2-ME (1 μg/100 μl PBS, b.i.d.)+TOC q.d. (0.3 μg/100 μl PBS)+blank PLGA implant, 7) TOC q.d. (0.3 μg/100 μl PBS)+4-HPR releasing PLGA implant, 8) 2-ME (1 μg/100 μl PBS, b.i.d.)+TOC q.d. (0.3 μg/100 μl PBS)+4-HPR releasing PLGA implant. By day 14 post injection, all mice had measurable tumors and treatment began on day 15. […] Pretreatment mean tumor volumes therefore varied among treatment groups. PLGA implants (via trocar) and injections were placed in the center of the tumor. At day 28 post OSCC xenograft placement final tumor measurements were obtained, the mice were euthanized and OSCC tumors along with lung, liver and sera were harvested for pharmacokinetic, histologic and IHC analyses (Ki-67, cleaved caspase-3 and involucrin). Image analyses of the nuclear stains (Ki-67 and cleaved caspase 3) were conducted using Image-Pro Plus 6.2 software (Media Cybernetics, Rockville, Md.).

[3] = cited from earlier work
SCC2095sc cells [4] = experiment: IHC of OSCC xenograft tumors (Ki-67, cleaved caspase 3, involucrin); assay type: in vivo, nude mice; conditions: qualitative
Text: IHC images representative of all of the groups are presented. The PLGA implants are visible as a clear cylindrical object in every photomicrograph except the TOC and 2-ME+TOC treatment. To facilitate PLGA implant recognition, arrows have been placed within the implants. Both the Ki-67 and caspase 3 stains are located within the nucleus. Qualitative Ki67 staining assessment was most apparent at the periphery of the tumors in all groups. In contrast to the abundant Ki-67 staining, cleaved caspase 3 was not nearly as prominent.
(Image scale 4× and 10× for smaller and larger photomicrographs, respectively).
SCC2095sc cells [10^6 cells suspended in 100 μl Matrigel (Corning Life Sciences, Corning, N.Y.)] were subcutaneously injected in the flanks of 6 week old male nude mice (n=6 per treatment group). Tumor measurements were recorded daily with calipers (greatest length and greatest width) and final tumor volumes calculated via tumor volume V=(length×width)×½. Treatment groups consisted of: 1) control (PBS injections)+blank (no drug) PLGA implants, 2) 2-ME (1 μg/100 μl PBS, b.i.d.)+blank PLGA implant, 3) 4-HPR releasing PLGA implant+PBS injections, 4) TOC q.d. (0.3 μg/100 μl PBS)+PLGA blank implant, 5) 2-ME (1 μg/100 μl PBS, b.i.d.)+4-HPR releasing PLGA implant, 6) 2-ME (1 μg/100 μl PBS, b.i.d.)+TOC q.d. (0.3 μg/100 μl PBS)+blank PLGA implant, 7) TOC q.d. […]

[5] = system: NF-κB subunits p65 and p50; experiment: NF-κB subunit DNA binding and activation in OSCC cells; assay type: cell-based, human; conditions: data not shown
Experimental: Twenty four hour sera-deprived cells were treated for an additional 24 hours in sera free media with the following: 1) 0.01% DMSO (vehicle control), 2) 5 μM 4-HPR, 3) 2.5 μM 2-ME, 4) 1 μg/ml tocilizumab (TOC, […]) 5) 5 μM 4-HPR+2.5 μM 2-ME, 6) 5 μM 4-HPR+1 μg/ml TOC, 7) 2.5 μM 2-ME+1 μg/ml TOC, 8) 5 μM 4-HPR+2.5 μM 2-ME+1 μg/ml TOC. Following treatment, conditioned media were collected (ELISAs for IL-6, sIL-6R, TGF-α, VEGF, EGF, R&D Systems, Minneapolis, Minn.) and nuclear and cytosolic lysates (Nuclear Extract Kit, Active Motif, Carlsbad, Calif.) isolated for EMSAs (STAT3, NFκB p50 and p65, TransAM Transcription Factor ELISAs, Active Motif) and cytosolic and nuclear extracts for Westerns (NE-PER Nuclear and Cytoplasmic Extraction Reagents, ThermoFisher Scientific, Waltham Mass.). […]

SCC2095sc cells [6] = experiment: OSCC tumor xenografts, tumor volume; assay type: in vivo, nude mice; conditions: for inhibition of established OSCC tumor growth / tumor size: discussion of xenograft study
Experimental: One million SCC2095sc cells (suspended in 100 μl Matrigel) were subcutaneously injected in flanks of 6 to 7 week old male nude mice (n=6 per treatment group). By day 14 post injection, all mice had palpable and measurable tumors. Treatment began on day 15. Caliper-based tumor measurements were recorded daily and final tumor volumes calculated via tumor volume V=(length×width)×½. Treatment groups consisted of: 1) control (PBS injections)+blank (no drug) polylactide co-glycolide (PLGA) implants, 2) 2-methoxyestradiol (2-ME) (1 μg/100 μl PBS, b.i.d.)+blank PLGA implant, 3) fenretinide (4-HPR) releasing PLGA implant+PBS injections, 4) tocilizumab (TOC) q.d. (0.3 μg/100 μl PBS)+PLGA blank implant, 5) 2-ME (1 μg/100 μl PBS, b.i.d.)+4-HPR releasing PLGA implant, 6) 2-ME (1 μg/100 μl PBS, b.i.d.)+TOC q.d. (0.3 μg/100 μl PBS)+blank PLGA implant, 7) TOC q.d. (0.3 μg/100 μl PBS)+4-HPR releasing PLGA implant, 8) 2-ME (1 μg/100 μl PBS, b.i.d.)+TOC q.d. (0.3 μg/100 μl PBS)+4-HPR releasing PLGA implant. In previous studies that employed younger mice tumors of varying sizes were disbursed among all treatment groups. Due to the older age of mice >6 weeks and the accompanying cage aggression tumor size distribution was not feasible in these studies. As a result, mean tumor volumes varied appreciably among treatment groups. PLGA implants (trocar placement) and injections were placed in the center of the tumor. Fluid dispersion throughout tumor was noted during injections. At day 28 post OSCC xenograft placement the mice were sacrificed, OSCC tumors along with lung and liver tissues and sera were harvested (for PK and histologic analyses). […] Provided the discrepancy in pretreatment tumor volumes (TOC the lowest, triple treatment second highest with its mean nearly two fold higher than TOC mean), the TOC+2-ME+4-HPR data are especially creditable.
as §1

[7] = In vitro release of 2-ME from PLGA; assay type: physicochemical; conditions: two low molecular weight acid-capped PLGA 50/50s, 10% 2-ME loading
Text: In one embodiment, 2-ME in PLGA can maximize drug loading and facilitate continuous release of the steroid over the correct time scale of release in vivo. Maximizing drug loading can provide more flexibility for dosing and increase the probability of attaining local therapeutic levels. IN one embodiment, the steroid is slowly and continuously released for >1 month in vitro from two different low molecular weight acid-capped PLGA 50/50s at 10% 2-ME loading.
2-ME with/without excipients can be combined with acid-capped PLGA 50/50 (13-24 kD) in acetone and extruded. Drug loading is typically about 10-50%. Drug loading can be determined by HPLC after dissolving implants in acetonitrile. Release kinetics in vitro can be performed in PBS+0.02% Tween 80 (PBST) at 37° C. under perfect sink conditions with HPLC detection.

sIL-6R = sIL-6R release from OSCC cell lines (ELISA); assay type: cell-based, human; conditions: 5 μM 4-HPR, 2.5 μM 2-ME, 1 μg/ml TOC, 24 h
Experimental: FIGS. 5A and 5B show the evaluation of the effects of single and combination treatment of fenretinide (4-HPR, 5 μM), 2-methoxyestradiol (2-ME, 2.5 μM) and the IL-6R inhibitor TOC (1 ug/ml) on STAT3-DNA binding and on release of the stromal and tumor cell activating, trans-signaling molecule, sIL-6R. (A) Treatment effects of STAT3-DNA binding. All cell lines with constitutive pSTAT3 expression (2095sc, JSCC1, JSCC2) were sera deprived for 24 h, followed by an additional 24 hours of treatment in sera-free medium that contained: control (0.1% DMSO), 5 μM 4-HPR, 2.5 μM 2-ME, 1 μg/ml TOC (initial agent concentrations same for single and combinations). As the JSCC3 cells don't constitutively express pSTAT3, these cells underwent 24 h stimulation in base medium supplemented with 10 ng/mL of IL-6 and 5 ng/mL of TGF-α, with or without 4-HPR, 2-ME and TOC followed by harvest. […] (n=13, Kruskal Wallis ANOVA followed by Dunn's Multiple Comparison post hoc test). […] (B) Effects of treatment on cell line release of sIL-6R. All four cell lines released sIL-6R [levels ranges from ˜750 fg/10^6 (JSCC2 cells baseline) to ˜3,000 fg/10^6 cells (stimulated JSCC3 cells, baseline production JSCC3˜2,000 fg/10^6 cells). […]

HNSCC tumor = conditions: 100 μg i.p., scid mice, reference 48; cited from earlier work

With `COC(=O)c1ccc2c(c1)NC(=O)/C2=C(\Nc1ccc(N(C)C(=O)CN2CCN(C)CC2)cc1)c1ccccc1` [Vargatef] the “phosphorylated STAT3 despite treatment” value ([1]; JSCC1 and JSCC2 cells) was “high to moderate levels of phosphorylated STAT3 persisted; also recorded: pSTAT3 persisted” and the “phosphorylation at the EGFR, ERK1/2 and STAT3 levels” value ([1]; JSCC3 cells, 1 h pretreatment, EGF/VEGF stimulation) was “reduced phosphorylation; also recorded: blocked STAT3 phosphorylation”.

With `CC1=C(/C=C/C(C)=C/C=C/C(C)=C/C(=O)Nc2ccc(O)cc2)C(C)(C)CCC1=O` [4-oxo-4-HPR, 4-oxo-fenretinide] the “oxidized metabolite in tumor or sera samples” value [2] was “no evidence”.

For `COc1cc2c(cc1O)CC[C@@H]1[C@@H]2CC[C@]2(C)[C@@H](O)CC[C@@H]12` [2-ME, 2-Methoxyestradiol], the half-life [3] is listed as ~4 h, the “involucrin expression (differentiation)” value (SCC2095sc cells [4]) is listed as “most intense expression” and the “NF-κB activation in OSCC cells” value [5] is listed as “didn't inhibit”. For the same molecule, the “tumor cell invasion and metastasis” value (SCC2095sc cells [6]; 2-ME treatment group) was “Lymphovascular (several mice) and perineural (single mouse) invasion”, the “inhibition of established OSCC tumor growth / tumor size” value (SCC2095sc cells [6]) was “lack of 2-ME efficacy” and the “duration of slow continuous release in vitro” value [7] was > 1 month.

For “TOC: humanized monoclonal antibody to the IL-6R receptor tocilizumab”, the sIL-6R release (sIL-6R) is given as “significantly reduced”, the sIL-6R release (sIL-6R; listed as tocilizumab) is given as “significantly inhibited” and the half-life [3] is given as ~19 h. The HNSCC tumor initiation (HNSCC tumor) was “significantly reduced HNSCC tumor initiation”, the established tumor growth (HNSCC tumor) was “didn't significantly inhibit established tumor growth” and the “mean tumor fold size increase” value (SCC2095sc cells [6]; day 15 to day 28, intratumoral treatment) was 2.13 fold. The “inhibition of established OSCC tumor growth / tumor size” value (SCC2095sc cells [6]) was “significantly inhibited OSCC tumor growth” and the “increase in tumor volume over 14 days” value (SCC2095sc cells [6]; intratumoral, TOC 0.3 μg q.d., 2-ME 1 μg b.i.d., 4-HPR PLGA implant, paired t test) was “prevented a significant increase in tumor volume”.
